# According to US8957093B2, “N-biphenylmethylindole modulators of PPARG” (The Scripps Research Institute, priority 2011, dated 2015):
# Where two headings read alike, the source gives them in different places.
# How the values were obtained:
# GST-PPARG-LBD = GST-PPARG-LBD (Homo sapiens (Human), UniProt P37231); assay: Lanthascreen PPARG competitive binding assay (Invitrogen, TR-FRET); details: NA = not active, inc = incomplete curve; for IC50: read-out: IC50 (nM) Lantha
# Description: Lanthascreen PPARG Competitive Binding Assay (Invitrogen)
# The assay was performed according to manufacturer protocol. A mixture of […], 5 nM Tb-GST-antibody, 5 nM Fluormone Pan-PPAR Green, and serial dilutions of the experimental compound, beginning at 10 μM downwards, was added to wells of black 384-well low-volume plates (Greiner) to a total volume of 18 μL. All dilutions were made in TR-FRET assay buffer C. DMSO at 2% final concentration was used as a no-ligand control. Experiment was performed in triplicate, and incubated for 2 hours in the dark prior to assay read in Perkin Elmer ViewLux ultra HTS microplate reader. FRET signal was measured by excitation at 340 nm and emission at 520 nm for fluorescein and 490 nm for terbium. Fold change over DMSO was calculated using GraphPad Prism Software (La Jolla, Calif.) by calculating 520 nm/490 nm ratio. Graphs were plotted as fold change of FRET signal for compound treatment over DMSO-only control.
# [1] = molecular target: Gal-4-PPAR (human PPAR LBD fused to GAL4 DNA-binding domain) (Homo sapiens (Human), UniProt P37231); assay: GAL4-PPARG LBD / UAS-luciferase transactivation assay in HEK 293T cells; format: cell-based; details: for EC50: GAL4 transactivation, HEK 293T cells, NA = not active, read-out: EC50 (nM) GAL4; for activation at 10 µM: HEK-293T, 18 h, read-out: % transactivation at 10 μM (GAL4)
# Gal-4-PPAR (human PPAR LBD fused to GAL4 DNA-binding domain), sequence (P37231 238-503): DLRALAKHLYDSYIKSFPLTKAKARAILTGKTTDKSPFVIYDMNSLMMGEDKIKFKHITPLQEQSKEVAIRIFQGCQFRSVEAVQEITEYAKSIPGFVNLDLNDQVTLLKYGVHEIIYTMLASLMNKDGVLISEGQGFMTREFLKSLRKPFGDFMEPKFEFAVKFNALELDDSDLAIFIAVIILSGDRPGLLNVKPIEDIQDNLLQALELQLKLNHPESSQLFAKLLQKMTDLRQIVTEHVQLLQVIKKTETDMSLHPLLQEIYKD
# [2] = Lanthascreen competitive binding
# [3] = Lanthascreen PPARG competitive binding
# GST-PPARG-LBD, sequence (P37231 238-503): as above
EC50 [1] [nM],activation at 10 µM [1] [%],Compound,IC50 (GST-PPARG-LBD; [2]) [nM],other results
–,–,"Cc1c(C)n(Cc2ccc(-c3ccccc3C(=O)O)cc2)c2ccc(C(=O)N[C@@H](C)c3ccc4ccccc4c3)cc12 [compound 26, (S)-4′-((2,3-Dimethyl-5-((1-(naphthalen-2-yl)ethyl)carbamoyl)-1H-indol-1-yl)methyl)-[1,1′-biphenyl]-2-carboxylic acid]",> 1000,–
–,–,"Cc1c(C)n(Cc2ccc(-c3ccccc3C(=O)NC[C@@H](O)C(=O)N(C)C)cc2)c2ccc(C(=O)N[C@@H](C)c3cccc(C(C)C)c3)cc12 [Example 309, 1-((2′-(((R)-3-(Dimethylamino)-2-hydroxy-3-oxopropyl)carbamoyl)-[1,1′-biphenyl]-4-yl)methyl)-N-((S)-1-(3-isopropylphenyl)ethyl)-2,3-dimethyl-1H-indole-5-carboxamide]",–,IC50 (GST-PPARG-LBD; [3]): > 1000 nM
–,–,"COc1ccc(CNC(=O)c2ccc3c(c2)c(C)c(C)n3Cc2ccc(-c3ccccc3C(=O)O)cc2)cc1F [Example 111, 4′-((5-(3-fluoro-4-methoxybenzylcarbamoyl)-2,3-dimethyl-1H-indol-1-yl)methyl)biphenyl-2-carboxylic acid]",13,–
–,–,"Cc1c(C)n(Cc2ccc(-c3ccccc3C(=O)N3CC[C@H](O)C3)cc2)c2ccc(C(=O)N[C@@H](C)c3cccc(C(C)C)c3)cc12 [Example 306, 1-((2′-((S)-3-Hydroxypyrrolidine-1-carbonyl)-[1,1′-biphenyl]-4-yl)methyl)-N-((S)-1-(3-isopropylphenyl)ethyl)-2,3-dimethyl-1H-indole-5-carboxamide]",–,IC50 (GST-PPARG-LBD; [3]): > 500 nM
2750,10,"Cc1c(C)n(Cc2ccc(-c3ccccc3C(=O)O)cc2)c2ccc(C(=O)N[C@@H](C)c3cccc(OC(C)C)c3)cc12 [Example 199, (S)-4′-((5-((1-(3-isopropoxyphenyl)ethyl)carbamoyl)-2,3-dimethyl-1H-indol-1-yl)methyl)-[1,1′-biphenyl]-2-carboxylic acid]",–,–
–,–,"COc1ccccc1[C@H](C)NC(=O)c1ccc2c(c1)c(C)c(C)n2Cc1ccc(-c2ccccc2C#N)cc1 [Example 292, (S)-1-((2′-cyano-[1,1′-biphenyl]-4-yl)methyl)-N-(1-(2-methoxyphenyl)ethyl)-2,3-dimethyl-1H-indole-5-carboxamide]",–,IC50 (nM) Lantha (GST-PPARG-LBD; [3]): inc
–,–,"Cc1c(C)n(Cc2ccc(-c3ccccc3C(=O)NCCN(C)C)cc2)c2ccc(C(=O)N[C@@H](C)c3cccc(C(C)C)c3)cc12 [Example 310, (S)-1-((2′-((2-(Dimethylamino)ethyl)carbamoyl)-[1,1′-biphenyl]-4-yl)methyl)-N-(1-(3-isopropylphenyl)ethyl)-2,3-dimethyl-1H-indole-5-carboxamide]",–,IC50 (GST-PPARG-LBD; [3]): > 1000 nM
–,–,"Cc1c(C)n(Cc2ccc(-c3ccccc3C(=O)O)cc2)c2ccc(C(=O)N(C)Cc3ccccc3)cc12 [compound 3, 4′-((5-(Benzyl(methyl)carbamoyl)-2,3-dimethyl-1H-indol-1-yl)methyl)biphenyl-2-carboxylic acid]",206,–
–,–,"Cc1c(C)n(Cc2ccc(-c3ccccc3C(=O)O)cc2)c2ccc(C(=O)NCc3ccc(C(F)(F)F)cc3)cc12 [Example 101, 4′-((2,3-dimethyl-5-(4-(trifluoromethyl)benzylcarbamoyl)-1H-indol-1-yl)methyl)biphenyl-2-carboxylic acid]",208,–
–,–,"Cc1c(C)n(Cc2ccc(-c3ccccc3C#N)cc2)c2ccc(C(=O)N[C@@H](C)c3ccc(C(F)(F)F)cc3)cc12 [Example 277, (S)-1-((2′-cyano-[1,1′-biphenyl]-4-yl)methyl)-2,3-dimethyl-N-(1-(4-(trifluoromethyl)phenyl)ethyl)-1H-indole-5-carboxamide]",–,IC50 (nM) Lantha (GST-PPARG-LBD; [3]): inc
–,–,"C[C@H](NC(=O)c1ccc2c(ccn2Cc2ccc(-c3ccc(S(C)(=O)=O)cc3)cc2)c1)c1ccc([N+](=O)[O-])cc1 [Example 50, (S)-1-((4′-(Methylsulfonyl)-[1,1′-biphenyl]-4-yl)methyl)-N-(1-(4-nitrophenyl)ethyl)-1H-indole-5-carboxamide]",> 1000,–
–,–,"Cc1c(C)n(Cc2ccc(-c3ccccc3C(=O)O)cc2)c2ccc(C(=O)N[C@@H](C)c3ccc(S(C)(=O)=O)cc3)cc12 [Example 258, (S)-4′-((2,3-dimethyl-5-(1-(4-(methylsulfonyl)phenyl)ethylcarbamoyl)-1H-indol-1-yl)methyl)biphenyl-2-carboxylic acid]",636,–
193,5,"Cc1c(C)n(Cc2ccc(-c3ccccc3C(=O)O)cc2)c2ccc(C(=O)N[C@@H](C)c3ccc(Cl)c(C(F)(F)F)c3)cc12 [Example 222, (S)-4′-((5-((1-(4-chloro-3-(trifluoromethyl)phenyl)ethyl)carbamoyl)-2,3-dimethyl-1H-indol-1-yl)methyl)-[1,1′-biphenyl]-2-carboxylic acid]",–,–
941,10,"Cc1c(C)n(Cc2ccc(-c3ccccc3C(=O)O)cc2)c2ccc(C(=O)N[C@@H](C)c3ccc(OC(C)C)cc3)cc12 [Example 201, (S)-4′-((5-((1-(4-isopropoxyphenyl)ethyl)carbamoyl)-2,3-dimethyl-1H-indol-1-yl)methyl)-[1,1′-biphenyl]-2-carboxylic acid]",–,–
–,0,"Cc1c(C)n(Cc2ccc(-c3ccccc3C(=O)O)cc2)c2ccc(C(=O)N[C@H]3CCN(C(=O)OCc4ccccc4)C3)cc12 [Example 204, (S)-4′-((5-((1-((benzyloxy)carbonyl)pyrrolidin-3-yl)carbamoyl)-2,3-dimethyl-1H-indol-1-yl)methyl)-[1,1′-biphenyl]-2-carboxylic acid]",–,–
169,35,"CC[C@@H](NC(=O)c1ccc2c(c1)c(C)c(C)n2Cc1ccccc1-c1ccc(C(=O)O)cc1)c1ccccc1 [Example 195, (R)-2′-((2,3-dimethyl-5-((1-phenylpropyl)carbamoyl)-1H-indol-1-yl)methyl)-[1,1′-biphenyl]-4-carboxylic acid]",–,–
931,18,"Cc1c(C)n(Cc2ccc(-c3ccccc3C(=O)O)cc2)c2ccc(C(=O)NCc3ccc(Cl)cc3Cl)cc12 [Example 168, 4′-((5-((2,4-dichlorobenzyl)carbamoyl)-2,3-dimethyl-1H-indol-1-yl)methyl)-[1,1′-biphenyl]-2-carboxylic acid]",–,–
191,40,"CC[C@@H](NC(=O)c1ccc2c(c1)c(C)c(C)n2Cc1ccccc1-c1cccc(C(=O)O)c1)c1ccccc1 [Example 193, (R)-2′-((2,3-dimethyl-5-((1-phenylpropyl)carbamoyl)-1H-indol-1-yl)methyl)-[1,1′-biphenyl]-3-carboxylic acid]",–,–
793,18,"CC[C@H](NC(=O)c1ccc2c(c1)c(C)c(C)n2Cc1ccccc1-c1cccc(C(=O)O)c1)c1ccccc1 [Example 194, (S)-2′-((2,3-dimethyl-5-((1-phenylpropyl)carbamoyl)-1H-indol-1-yl)methyl)-[1,1′-biphenyl]-3-carboxylic acid]",–,–
596,10,"Cc1c(C)n(Cc2ccc(-c3ccccc3C(=O)O)cc2)c2ccc(C(=O)NCc3ccc(C(F)(F)F)cc3F)cc12 [Example 167, 4′-((5-((2-fluoro-4-(trifluoromethyl)benzyl)carbamoyl)-2,3-dimethyl-1H-indol-1-yl)methyl)-[1,1′-biphenyl]-2-carboxylic acid]",–,–
